Results: ChEMBL document CHEMBL3763014, “Alkaloids from Oxytropis ochrocephala and antiproliferative activity of sophoridine derivatives against cancer cell lines” (Bioorg Med Chem Lett, 2016)

Key:
Assay type in all cases: functional, cell-based
[1] = test system: A549; test: Antiproliferative activity against human A549 cells after 3 days by SRB assay; settings: A549, 72 h
[2] = test system: KB; test: Antiproliferative activity against human KB cells after 3 days by SRB assay; settings: 72 h
[3] = Antiproliferative activity against human KBVIN cells after 3 days by SRB assay; settings: 72 h
[4] = test system: MDA-MB-231; test: Antiproliferative activity against human MDA-MB-231 cells after 3 days by SRB assay; settings: MDA-MB-231, 72 h
[5] = test system: MCF7; test: Antiproliferative activity against human MCF7 cells after 3 days by SRB assay; settings: MCF7, 72 h

SMILES | IC50 [1] [µM] | IC50 [2] [µM] | IC50 [4] [µM] | IC50 [5] [µM] | IC50 [3] [µM]
CC(=O)O[C@H]1C(=O)[C@@]2(C)[C@H]([C@H](OC(=O)c3ccccc3)[C@]3(O)C[C@H](OC(=O)[C@H](O)[C@@H](NC(=O)c4ccccc4)c4ccccc4)C(C)=C1C3(C)C)[C@]1(OC(C)=O)CO[C@@H]1C[C@@H]2O [PACLITAXEL] | 3e-05 | 4e-05 | 0.018 |  | 2.6
O=C1C=CC[C@@H]2[C@H]3CCCN4CCC[C@@H](CN12)[C@@H]34 [SOPHOCARPINE] | > 40 | > 40 | > 40 |  | > 40
O=C1CCCC2=C3CCCN4CCC[C@@H](CN12)[C@@H]34 | > 40 | > 40 | > 40 |  | > 40
COc1cccc(/C=C2\CC[C@@H]3[C@H]4CCCN5CCC[C@H](CN3C2=O)[C@@H]45)c1OC | > 80 | 71 | 68 | > 80 | > 80
O=C1CCC[C@@H]2[C@H]3CCCN4CCC[C@H](CN12)[C@H]34 | > 40 | > 40 | > 40 |  | > 40
O[C@@H]1[C@H]2[C@H](O)CCCN2C[C@@H]1O | > 40 | > 40 | > 40 |  | > 40
O=c1cccc2n1C[C@@H]1CCCN3CCC[C@H]2[C@H]13 | > 40 | > 40 | > 40 |  | > 40
O=C1CCC[C@@H]2[C@H]3CCCN4CCC[C@H](CN12)[C@@H]34 [SOPHORIDINE] | > 80 | > 80 | > 80 | > 80 | > 80
COc1ccc(/C=C2\CC[C@@H]3[C@H]4CCCN5CCC[C@H](CN3C2=O)[C@@H]45)c(C)c1 | 74 | 74 | 67 | > 80 | > 80
O=C1CCC[C@@H]2[C@H]3CCCN4CCC[C@@H](CN12)[C@@H]34 [MATRINE] | > 40 | > 40 | > 40 |  | > 40
O=C1CCC[C@@H]2[C@@H]3C[C@@H](CN12)[C@@H]1CCCCN1C3 | > 40 | > 40 | > 40 |  | > 40

More lines, main results first:

IC50 [1] [µM] | IC50 [2] [µM] | IC50 [4] [µM] | IC50 [5] [µM] | SMILES | IC50 [3] [µM]
> 40 | > 40 | > 40 |  | CCOc1cc(/C=C2\CC[C@@H]3[C@H]4CCCN5CCC[C@H](CN3C2=O)[C@@H]45)ccc1OCOC | > 40
> 40 | > 40 | > 40 |  | CN(C)c1ccc(/C=C2\CC[C@@H]3[C@H]4CCCN5CCC[C@H](CN3C2=O)[C@@H]45)cc1 | > 40
> 40 | > 40 | > 40 |  | O=C1/C(=C/c2ccc3c(c2)OCO3)CC[C@@H]2[C@H]3CCCN4CCC[C@H](CN12)[C@@H]34 | > 40
42 | 58 | 45 | 54 | COc1cc(/C=C2\CC[C@@H]3[C@H]4CCCN5CCC[C@H](CN3C2=O)[C@@H]45)ccc1C | 72
> 40 | > 40 | > 40 |  | COc1cccc(OC)c1/C=C1\CC[C@@H]2[C@H]3CCCN4CCC[C@H](CN2C1=O)[C@@H]34 | > 40
17.6 | 20.7 | 21.9 | 20.5 | CCOc1cc(/C=C2\CC[C@@H]3[C@H]4CCCN5CCC[C@H](CN3C2=O)[C@@H]45)ccc1OCc1ccccc1 | 21.6
